Article PMC9184620, “TAS1553, a small molecule subunit interaction inhibitor of ribonucleotide reductase, exhibits antitumor activity by causing DNA replication stress” (Communications Biology, 2022)
Ends that are not written are not given here.

Assays:
[1] = molecular target: T1, interaction between R1 and R2 (human RNR) (Homo sapiens, UniProt P23921); experiment: AlphaLISA binding assay (interaction between His-R1 and GST-R2); details: recombinant R1 and R2; mean ± SD
T1 construct: host or cells: Escherichia coli (His-R1)
T1 sequence (P23921 1-792): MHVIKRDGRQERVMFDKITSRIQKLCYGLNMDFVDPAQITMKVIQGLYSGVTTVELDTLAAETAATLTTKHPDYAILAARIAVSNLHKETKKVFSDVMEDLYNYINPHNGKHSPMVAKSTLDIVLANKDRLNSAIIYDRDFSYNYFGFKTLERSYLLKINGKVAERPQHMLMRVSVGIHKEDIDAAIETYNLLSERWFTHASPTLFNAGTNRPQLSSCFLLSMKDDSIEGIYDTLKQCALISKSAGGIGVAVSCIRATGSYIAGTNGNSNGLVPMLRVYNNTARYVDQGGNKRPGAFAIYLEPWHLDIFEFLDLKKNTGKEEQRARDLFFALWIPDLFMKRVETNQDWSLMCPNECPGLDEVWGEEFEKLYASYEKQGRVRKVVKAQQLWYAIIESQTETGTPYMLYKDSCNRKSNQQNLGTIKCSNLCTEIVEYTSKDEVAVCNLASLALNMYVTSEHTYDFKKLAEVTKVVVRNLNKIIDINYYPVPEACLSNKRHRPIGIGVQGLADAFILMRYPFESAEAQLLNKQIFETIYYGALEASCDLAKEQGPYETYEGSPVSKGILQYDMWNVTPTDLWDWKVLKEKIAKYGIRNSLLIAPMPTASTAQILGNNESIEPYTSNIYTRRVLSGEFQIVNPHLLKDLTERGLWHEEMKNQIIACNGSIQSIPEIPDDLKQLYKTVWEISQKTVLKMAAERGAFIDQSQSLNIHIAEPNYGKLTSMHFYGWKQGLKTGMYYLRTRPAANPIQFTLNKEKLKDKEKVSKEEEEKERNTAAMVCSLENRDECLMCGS

[2] = molecular target: T2, RNR (R1 and R2 recombinant proteins) (Homo sapiens, UniProt P23921); experiment: RNR assay (formation of dCDP from CDP); assay type: biochemical; details: CDP to dCDP; mean ± SD; read-out: Enzyme IC50
T2 construct: made in house; host or cells: Escherichia coli
T2 sequence (P23921 1-792): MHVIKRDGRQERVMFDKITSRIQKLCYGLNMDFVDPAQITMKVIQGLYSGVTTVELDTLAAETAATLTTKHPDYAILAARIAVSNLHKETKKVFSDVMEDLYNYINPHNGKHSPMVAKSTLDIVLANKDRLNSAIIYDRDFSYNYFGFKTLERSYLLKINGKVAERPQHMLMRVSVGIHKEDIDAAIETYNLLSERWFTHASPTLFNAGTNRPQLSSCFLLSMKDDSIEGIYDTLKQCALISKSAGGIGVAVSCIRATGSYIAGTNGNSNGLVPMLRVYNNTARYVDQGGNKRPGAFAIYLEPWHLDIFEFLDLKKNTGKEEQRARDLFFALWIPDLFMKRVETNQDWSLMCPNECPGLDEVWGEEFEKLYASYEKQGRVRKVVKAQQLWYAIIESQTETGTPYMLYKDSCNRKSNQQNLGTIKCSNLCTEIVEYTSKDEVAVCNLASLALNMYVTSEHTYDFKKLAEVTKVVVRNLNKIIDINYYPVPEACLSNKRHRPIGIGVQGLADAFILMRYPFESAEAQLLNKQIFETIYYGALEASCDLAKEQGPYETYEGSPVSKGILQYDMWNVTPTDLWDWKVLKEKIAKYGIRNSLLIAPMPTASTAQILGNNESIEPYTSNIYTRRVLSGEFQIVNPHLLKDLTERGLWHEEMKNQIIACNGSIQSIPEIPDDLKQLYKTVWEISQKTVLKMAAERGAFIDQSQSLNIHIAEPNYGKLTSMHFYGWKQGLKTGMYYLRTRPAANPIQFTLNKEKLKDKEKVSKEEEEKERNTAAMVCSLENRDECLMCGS
Method: The binding affinity of TAS1553 to the R1 subunit was investigated using surface plasmon resonance (SPR) binding analysis. […] Next, we evaluated the inhibitory effect of TAS1553 against the enzymatic activity of RNR, consisting of R1 and R2 recombinant proteins. RNR activity was determined by its ability to reduce cytidine diphosphate (CDP) to deoxycytidine diphosphate (dCDP), based on a previous report. […] In addition to the inhibitory effect on RNR, TAS1553 was evaluated in a Eurofins LeadProfilingScreen panel assay including 68 proteins, such as ion channels, transporters, nuclear receptors, and G protein-coupled receptors, to examine its potential adverse activity.
The inhibition of RNR activity by the test compound was evaluated by measuring the formation of dCDP from CDP, as reported previously. The assay was performed for 30 min at 37 °C in a reaction mixture composed of 50 mmol/L HEPES, 4 mmol/L magnesium acetate, 100 mmol/L KCl, 6 mmol/L DTT, 2 mmol/L ATP, 0.24 mmol/L NADPH, 10.0 µmol/L CDP, 0.1 mg/mL BSA, 8.0 µg/mL His-R1, 2.4 µg/mL His-R2, and 1% DMSO with or without test compound. The reaction was discontinued by heat treatment at 95 °C for 5 min. The amount of dCDP after the reaction was quantified by a prominence HPLC system and LabSolutions software (SHIMADZU CORPORATION). Separations were performed at 265 nm in a Shim-pack XR-ODS column of particle size 2.2 μm (100 × 3.0 mm, SHIMADZU GLC Ltd.). Overall, 5 µL of each sample was injected, and chromatography was performed at 40 °C. Mobile A was composed of 10 mmol/L potassium dihydrogenphosphate, 10 mmol/L tetrabutylammonium hydroxide, 0.25% methanol and 8 mmol/L HCl. Mobile B was composed of 50 mmol/L potassium dihydrogenphosphate, 5.6 mmol/L tetrabutylammonium hydroxide, and 30% methanol. The gradient was as follows: 52–60% B for 9 min, 60–99% B for 1 min, 99% B for 5 min, 99–52% B for 1 min, and 52% B for 5 min. The flow rate was 0.5 mL/min. The experiment was performed in triplicates. IC50 values were calculated using the SAS software package.

human R1 = molecular target: T3, human R1 (Homo sapiens, UniProt P23921); experiment: Fluorescence polarization binding assay (displacement of TAMRA-labeled P7 from R1); details: R1 and TAMRA-labeled P7; mean ± SD, three independent experiments; read-out: IC50, fluorescent polarization binding assay
T3 construct: made in house; host or cells: Escherichia coli
T3 sequence (P23921 1-792): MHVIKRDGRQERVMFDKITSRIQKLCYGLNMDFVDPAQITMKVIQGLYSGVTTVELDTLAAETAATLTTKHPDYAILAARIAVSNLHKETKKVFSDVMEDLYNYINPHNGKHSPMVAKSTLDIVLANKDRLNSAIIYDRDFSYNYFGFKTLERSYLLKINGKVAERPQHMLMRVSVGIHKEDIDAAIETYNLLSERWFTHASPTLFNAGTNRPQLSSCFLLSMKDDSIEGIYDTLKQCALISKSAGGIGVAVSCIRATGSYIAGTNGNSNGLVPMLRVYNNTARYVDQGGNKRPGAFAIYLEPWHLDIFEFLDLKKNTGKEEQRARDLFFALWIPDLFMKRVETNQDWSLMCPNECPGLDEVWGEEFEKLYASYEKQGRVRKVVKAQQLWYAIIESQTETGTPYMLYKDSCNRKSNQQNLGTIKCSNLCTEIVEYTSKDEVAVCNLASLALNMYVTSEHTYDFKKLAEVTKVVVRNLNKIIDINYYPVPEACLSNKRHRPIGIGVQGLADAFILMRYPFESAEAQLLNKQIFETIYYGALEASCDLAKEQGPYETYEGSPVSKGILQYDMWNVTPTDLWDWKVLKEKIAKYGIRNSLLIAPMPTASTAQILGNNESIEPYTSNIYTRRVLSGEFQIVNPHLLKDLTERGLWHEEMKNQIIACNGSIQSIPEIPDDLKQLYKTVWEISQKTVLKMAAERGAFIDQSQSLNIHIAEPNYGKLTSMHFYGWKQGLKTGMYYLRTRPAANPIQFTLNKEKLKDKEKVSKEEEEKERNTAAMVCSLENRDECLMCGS
Description: Fig. 1 Design and identification of the small molecule compound TAS1553 blocking the interaction between RNR subunits. a A schematic representation of the fluorescent polarization binding assay. TAMRA-labeled P7 heptapeptide was used as a probe. […] Data are presented as mean ± SD obtained from three independent experiments. c Chemical structures of compound 1 and TAS1553. d Superposition of the X-ray co-crystal structure of human RRM1 (green) with compound 1 (magenta) (PDB ID: 6L3R) to the previously determined X-ray co-crystal structure of Saccharomyces cerevisiae RNR1 (cyan) with P7 peptide (yellow) (PDB ID: 2ZLF). The residue numbers and protein surface shown here are those of hRRM1. e SPR analysis for the binding of TAS1553 to human R1 captured onto Series S Sensor Chip NTA. […] IC50 (mean ± SD) is determined from three independent experiments performed in triplicate.
TAMRA-labeled P7 peptide was obtained from Peptide Institute, Inc. to be used as a fluorescent probe in the FP binding assay. The final reaction mixture was composed of 50 mmol/L Tris-Cl (pH 8.0), 10 mmol/L DTT, 10 nmol/L TAMRA-P7, 32 ng/mL His-R1, and 1% DMSO with or without test compound. The assay was performed for 120 min at room temperature with protection from light, after which FP of each sample was measured with a PHERAstarFS. IC50 values were calculated using the SAS software package in EXSUS (CAC Croit).

MV-4-11 xenograft = experiment: Antitumor activity in rats bearing MV-4-11 xenografts; assay type: in vivo; details: 32 mg/kg intravenously for 5 consecutive days
Method: Next, we evaluated the antitumor activity of a high-dose administration of TAS1553 and cytarabine in rats bearing MV-4-11 xenografts. […] The rats were treated with cytarabine for 5 days at 16 and 32 mg/kg. […] In addition to the hematologic tumor, we evaluated the antitumor activity of TAS1553 in mice implanted with HCC38 cell line as a solid tumor model. […] Finally, TAS1553 was evaluated for its survival benefit in a mouse model. To achieve this, we established mice bone marrow cells harboring the human MLL-AF9 fusion gene, which is known as a driver gene for AML in humans as well as mice[48].
For the subcutaneous implantation model of MV-4-11, F344/NJcl-rnu/rnu rats were irradiated with X-ray (4 Gy) to improve the efficiency of xenograft implantation. Two days after X-ray irradiation, MV-4-11 cells suspended in PBS with 50 vol% Matrigel were inoculated into the rats (2 × 10^7 cells/animal). In the mice subcutaneous implantation model, HCC38 cells suspended same as above were inoculated into male BALB/cAJcl-nu/nu mice (1 × 10^7 cells /body). […] Antitumor activity and body weight change were evaluated as previously reported. Dunnett test using the SAS software package in EXSUS (CAC Croit) was used to compare the tumor volume (P < 0.05).

[3] = molecular target: T4, 6x His-tagged recombinant human R1 (RRM1) (human, UniProt P23921 1-792); experiment: fluorescence polarisation; competition: 10 nmol/L TAMRA-P7 probe, 32 ng/mL His-R1, with or without test compound; 50 mmol/L Tris-Cl pH 8.0, 10 mmol/L DTT, 1% DMSO; 120 min, room temperature; details: both partners purified
T4 construct: also called His-R1; hRRM1
T4 sequence (looked up): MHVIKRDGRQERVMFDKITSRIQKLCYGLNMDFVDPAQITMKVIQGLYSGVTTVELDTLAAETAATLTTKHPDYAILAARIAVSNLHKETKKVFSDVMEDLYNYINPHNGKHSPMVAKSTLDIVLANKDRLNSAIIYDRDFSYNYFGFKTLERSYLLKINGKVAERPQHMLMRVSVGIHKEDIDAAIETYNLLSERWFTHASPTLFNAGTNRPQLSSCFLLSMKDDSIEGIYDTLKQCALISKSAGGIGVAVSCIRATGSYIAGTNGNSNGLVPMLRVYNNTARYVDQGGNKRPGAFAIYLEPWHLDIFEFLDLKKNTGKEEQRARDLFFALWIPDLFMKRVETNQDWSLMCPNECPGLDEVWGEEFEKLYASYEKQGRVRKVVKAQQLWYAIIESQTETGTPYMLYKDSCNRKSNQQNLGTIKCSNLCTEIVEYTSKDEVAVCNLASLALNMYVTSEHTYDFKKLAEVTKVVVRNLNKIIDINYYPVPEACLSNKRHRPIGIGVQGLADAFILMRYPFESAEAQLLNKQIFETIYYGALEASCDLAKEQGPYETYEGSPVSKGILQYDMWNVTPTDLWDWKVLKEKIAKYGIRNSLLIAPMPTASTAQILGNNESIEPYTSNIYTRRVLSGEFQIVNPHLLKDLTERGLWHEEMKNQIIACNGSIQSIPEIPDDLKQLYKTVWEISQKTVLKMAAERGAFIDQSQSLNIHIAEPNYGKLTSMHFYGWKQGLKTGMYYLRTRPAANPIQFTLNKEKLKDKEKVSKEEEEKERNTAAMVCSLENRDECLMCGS

[4] = molecular target: T4, 6x His-tagged recombinant human R1 …; experiment: AlphaScreen or HTRF; AlphaLISA: 4.3 ug/mL His-R1 (Nickel Chelate Acceptor beads), 3.3 ug/mL GST-R2 (Glutathione Donor beads), with or without test compound; 50 mmol/L HEPES, 4 mmol/L magnesium acetate, 100 mmol/L KCl, 6 mmol/L DTT, 2 mmol/L ATP, 0.24 mmol/L NADPH, 0.010 mmol/L CDP, 0.1 vol% polysorbate 20, 1 vol% DMSO; 60 min, room temperature; details: both partners purified

## NC(=O)NO [HU, Hydroxyurea, reference compound]
[1]
  IC50: > 1 mM
[2]
  IC50: 188 ± 32 µM

## NC(=S)N/N=C/c1ncccc1N [3-AP, Triapine]
[2]
  IC50: 0.364 ± 0.106 µM

## O=C(N[C@@H](Cc1ccccc1)C(=O)O)OCC1c2ccccc2-c2ccccc21 [Fmoc-L-phenylalanine, reference compound]
Human R1
  IC50: 934 ± 35 µM

## Nc1ccn([C@@H]2O[C@H](CO)[C@@H](O)[C@@H]2O)c(=O)n1 [cytarabine, reference compound]
MV-4-11 xenograft
  T/C ratio: 77.4%

B1: TAMRA-labeled P7 peptide (peptide)
peptide: FTLDADF
modifications: also: TAMRA label, site not given here
notes: also called TAMRA-P7; fluorescence tagged P7; source: synthetic peptide; bought: Peptide Institute, Inc
[3]
  binding result: binds

B2: P7 heptapeptide (N-AcFTLDADF) (peptide)
peptide: Ac-FTLDADF
notes: also called unlabeled P7; P7 peptide; source: synthetic peptide; bought: Peptide Institute, Inc
[3]
  IC50: 2490 nM
[4]
  IC50: 9.22 µM
